Patent publication US7056934B2, “Nicotinamide derivatives useful as PDE4 inhibitors” (Pfizer Inc, priority 2003, dated 2006)

Each compound was assayed on human peripheral blood mononuclear cells (assay: Inhibition of LPS-stimulated TNFα release from human peripheral blood mononuclear cells (TNFα screen)). Settings: LPS-stimulated human PBMC, 18 hours incubation, TNFα in supernatant by ELISA.
Type: cell-based
Protocol: Venous blood is collected from healthy volunteers and the mononuclear cells purified by centrifugation through Histopaque (Ficoll) cushions. TNFα production from these cells is stimulated by addition of lipopolysaccharide. After 18 hours incubation in the presence of LPS, the cell supernatant is removed and the concentration of TNFα in the supernatant determined by ELISA.
With “Syn-5-Fluoro-N-(4-{[1-(2-hydroxy-ethyl)-1H-pyrazole-4-carbonyl]-amino}-cyclohexyl)-2-(3-methylsulfanyl-phenoxy)-nicotinamide [Example 7]” the IC50 was 4.6 nM. Compound `CSc1cc(Oc2ncc(F)cc2C(=O)N[C@H]2CC[C@@H](NC(=O)c3ccccc3OCCO)CC2)ccc1F` [Example 9, Syn-5-Fluoro-2-(4-fluoro-3-methylsulfanyl-phenoxy)-N-{4-[2-(2-hydroxy-ethoxy)-benzoylamino]-cyclohexyl}-nicotinamide] has an IC50 of 0.36 nM. For “Syn-N-{4-[4-Chloro-2-(2-hydroxy-ethoxy)-benzoylamino]-cyclohexyl}-5-fluoro-2-(3-methylsulfanyl-phenoxy)-nicotinamide [Example 15]”, the IC50 was 1.6 nM. “Syn-5-Fluoro-N-{4-[2-(2-hydroxy-ethoxy)-5-methyl-benzoylamino]-cyclohexyl}-2-(3-methylsulfanyl-phenoxy)-nicotinamide [Example 11]” showed an IC50 of 0.8 nM. “Syn-5-Fluoro-N-{4-[2-(2-hydroxy-ethoxy)-3-methyl-benzoylamino]-cyclohexyl}-2-(3-methylsulfanyl-phenoxy)-nicotinamide [Example 13]” showed an IC50 of 0.07 nM. “Syn-5-Fluoro-N-(4-{[1-(2-hydroxy-ethyl)-1H-pyrazole-3-carbonyl]-amino}-cyclohexyl)-2-(3-methylsulfanyl-phenoxy)-nicotinamide [Example 5]” showed an IC50 of 0.24 nM. Work on “Syn-5-Chloro-N-{4-[2-(2-hydroxy-ethoxy)-benzoylamino]-cyclohexyl}-2-(3-methylsulfanyl-phenoxy)-nicotinamide [Example 18]” yielded an IC50 of 0.15 nM. For “Syn-5-Fluoro-N-(4-{[1-(2-hydroxy-ethyl)-5-methyl-1H-pyrazole-3-carbonyl]-amino}-cyclohexyl)-2-(3-methylsulfanyl-phenoxy)-nicotinamide [Example 8]”, the IC50 was 0.2 nM. In the case of “Syn-N-{4-[5-Chloro-2-(2-hydroxy-ethoxy)-benzoylamino]-cyclohexyl}-5-fluoro-2-(3-methylsulfanyl-phenoxy)-nicotinamide [Example 14]”, the IC50 is reported as 0.6 nM. Work on `CSc1cccc(Oc2ncc(F)cc2C(=O)N[C@H]2CC[C@@H](NC(=O)c3ccc(CO)cc3O)CC2)c1` [Example 2, Syn-5-Fluoro-N-[4-(2-hydroxy-4-hydroxymethyl-benzoylamino)-cyclohexyl]-2-(3-methylsulfanyl-phenoxy)-nicotinamide] yielded an IC50 of 0.6 nM. `CSc1cccc(Oc2ncc(F)cc2C(=O)N[C@H]2CC[C@@H](NC(=O)c3cc(C(C)C)n(CCO)n3)CC2)c1` [Example 10, Syn-5-Fluoro-N-(4-{[1-(2-hydroxy-ethyl)-5-isopropyl-1H-pyrazole-3-carbonyl]-amino}-cyclohexyl)-2-(3-methylsulfanyl-phenoxy)-nicotinamide] was tested, and the IC50 was 2.5 nM. “Syn-N-(4-{[5-Ethyl-1-(2-hydroxy-ethyl)-1H-pyrazole-3-carbonyl]-amino}-cyclohexyl)-5-fluoro-2-(3-methylsulfanyl-phenoxy)-nicotinamide [Example 17]” showed an IC50 of 0.05 nM. With “Syn-5-Fluoro-N-{4-[2-(2-hydroxy-ethoxy)-4-methyl-benzoylamino]-cyclohexyl}-2-(3-methylsulfanyl-phenoxy)-nicotinamide [Example 12]” the IC50 was 0.3 nM. `CSc1cccc(Oc2ncc(F)cc2C(=O)N[C@H]2CC[C@@H](NC(=O)c3cn(CCO)cn3)CC2)c1` [Example 3, Syn-5-Fluoro-N-(4-{[1-(2-hydroxy-ethyl)-1H-imidazole-4-carbonyl]-amino}-cyclohexyl)-2-(3-methylsulfanyl-phenoxy)-nicotinamide] gave an IC50 of 1.6 nM.
